Assay results from US10407428B2, “Spiro-isoquinoline-1,4′-piperidine compounds having multimodal activity against pain” (ESTEVE PHARMACEUTICALS, S.A., priority 2014, dated 2019).

These compounds were tested against human σ1 receptor and human μ-opioid receptor (assay: Human σ1 receptor radioligand assay and human μ-opioid receptor radioligand assay (μ and σ1 dual binding)). Conditions: not given.
Design: key to μ and σ1 dual binding: +: Both Ki-μ and Ki-σ1>=500 nM; ++: One Ki<500 nM while the other Ki is >=500 nM; +++: Both Ki-μ and Ki-σ1<500 nM; ++++: Both Ki-μ and Ki-σ1<100 nM

SMILES | Ki [nM] | μ and σ1 dual binding
CN1CCc2ccccc2C12CCN(CC(=O)c1ccccc1)CC2 [Example 69, 2-(2-methyl-3,4-dihydro-2H-spiro[isoquinoline-1,4′-piperidine]-1′-yl)-1-phenylethanone] | < 500 | 
CN1CCc2ccccc2C12CCN(CC(=O)N1CCOCC1)CC2 [Example 70, 2-(2-methyl-3,4-dihydro-2H-spiro[isoquinoline-1,4′-piperidine]-1′-yl)-1-morpholinoethanone] | < 500 | 
CN1CCc2ccccc2C12CCN(CC(=O)N1CCCCC1)CC2 [Example 71, 2-(2-methyl-3,4-dihydro-2H-spiro[isoquinoline-1,4′-piperidine]-1′-yl)-1-(piperidin-1-yl)ethanone] | < 500 | 
CN(C(=O)CN1CCC2(CC1)c1ccccc1CCN2C)c1ccccc1 [Example 72, N-methyl-2-(2-methyl-3,4-dihydro-2H-spiro[isoquinoline-1,4′-piperidine]-1′-yl)-N-phenylacetamide] |  | ++
CN(C)C(=O)CN1CCC2(CC1)c1ccccc1CCN2C [Example 73, N,N-dimethyl-2-(2-methyl-3,4-dihydro-2H-spiro[isoquinoline-1,4′-piperidine]-1′-yl)acetamide] |  | ++
CN1CCc2ccccc2C12CCN(CCC1CCOCC1)CC2 [Example 74, 2-methyl-1′-(2-(tetrahydro-2H-pyran-4-yl)ethyl)-3,4-dihydro-2H-spiro[isoquinoline-1,4′-piperidine]] | < 500 | 
CN1CCc2ccccc2C12CCN(CCc1ccccn1)CC2 [Example 75, 2-methyl-1′-(2-(pyridin-2-yl)ethyl)-3,4-dihydro-2H-spiro[isoquinoline-1,4′-piperidine]] | < 500 | 
CN1CCc2ccccc2C12CCN(CCc1cccnc1)CC2 [Example 76, 2-methyl-1′-(2-(pyridin-3-yl)ethyl)-3,4-dihydro-2H-spiro[isoquinoline-1,4′-piperidine]] | < 500 | 
COCCN1CCC2(CC1)c1ccccc1CCN2C [Example 77, 1′-(2-methoxyethyl)-2-methyl-3,4-dihydro-2H-spiro[isoquinoline-1,4′-piperidine]] |  | ++
CC(C)OCCN1CCC2(CC1)c1ccccc1CCN2C [Example 78, 1′-(2-isopropoxyethyl)-2-methyl-3,4-dihydro-2H-spiro[isoquinoline-1,4′-piperidine]] | < 500 | 
CN1CCc2ccccc2C12CCN(CCN1CCCCC1)CC2 [Example 79, 2-methyl-1′-(2-(piperidin-1-yl)ethyl)-3,4-dihydro-2H-spiro[isoquinoline-1,4′-piperidine]] | < 500 | 
CN(C(=O)CCN1CCC2(CC1)c1ccccc1CCN2C)c1ccccc1 [Example 81, N-methyl-3-(2-methyl-3,4-dihydro-2H-spiro[isoquinoline-1,4′-piperidine]-1′-yl)-N-phenylpropanamide] |  | ++
CN1CCc2ccccc2C12CCN(Cc1ccccn1)CC2 [Example 82, 2-methyl-1′-(pyridin-2-ylmethyl)-3,4-dihydro-2H-spiro[isoquinoline-1,4′-piperidine]] | < 500 | 
CN1CCc2ccccc2C12CCN(Cc1ccncc1)CC2 [Example 83, 2-methyl-1′-(pyridin-4-ylmethyl)-3,4-dihydro-2H-spiro[isoquinoline-1,4′-piperidine]] |  | ++
CN1CCc2ccccc2C12CCN(Cc1cccnc1)CC2 [Example 84, 2-methyl-1′-(pyridin-3-ylmethyl)-3,4-dihydro-2H-spiro[isoquinoline-1,4′-piperidine]] | < 500 | 
CC(C(=O)N1CCC(F)CC1)N1CCC2(CC1)c1ccccc1CCN2C (stereo not drawn) [Example 86, 1-(4-fluoropiperidin-1-yl)-2-(2-methyl-3,4-dihydro-2H-spiro[isoquinoline-1,4′-piperidine]-1′-yl)propan-1-one] |  | ++
CC(C)CN(C)C(=O)CN1CCC2(CC1)c1ccccc1CCN2C [Example 87, N-isobutyl-N-methyl-2-(2-methyl-3,4-dihydro-2H-spiro[isoquinoline-1,4′-piperidine]-1′-yl)acetamide] |  | ++
CN1CCc2ccccc2C12CCN(CC(=O)N1CCCC(F)(F)C1)CC2 [Example 88, 1-(3,3-difluoropiperidin-1-yl)-2-(2-methyl-3,4-dihydro-2H-spiro[isoquinoline-1,4′-piperidine]-1′-yl)ethanone] |  | ++
CCN(C(=O)CN1CCC2(CC1)c1ccccc1CCN2C)C(C)C [Example 89, N-ethyl-N-isopropyl-2-(2-methyl-3,4-dihydro-2H-spiro[isoquinoline-1,4′-piperidine]-1′-yl)acetamide] | < 500 | 

SMILES | Ki [nM] | μ and σ1 dual binding
CN1CCc2ccccc2C12CCN(CC(=O)N1CCCC1)CC2 [Example 90, 2-(2-methyl-3,4-dihydro-2H-spiro[isoquinoline-1,4′-piperidine]-1′-yl)-1-(pyrrolidin-1-yl)ethanone] |  | ++
CN1CCc2ccccc2C12CCN(CC(=O)N1CCC(C(F)(F)F)CC1)CC2 [Example 91, 2-(2-methyl-3,4-dihydro-2H-spiro[isoquinoline-1,4′-piperidine]-1′-yl)-1-(4-(trifluoromethyl)piperidin-1-yl)ethanone] | < 500 | 
CN1CCc2ccccc2C12CCN(CC(=O)N1CCC(F)(F)C1)CC2 [Example 92, 1-(3,3-difluoropyrrolidin-1-yl)-2-(2-methyl-3,4-dihydro-2H-spiro[isoquinoline-1,4′-piperidine]-1′-yl)ethanone] |  | ++
CN(Cc1ccccc1)C(=O)CN1CCC2(CC1)c1ccccc1CCN2C [Example 93, N-benzyl-N-methyl-2-(2-methyl-3,4-dihydro-2H-spiro[isoquinoline-1,4′-piperidine]-1′-yl)acetamide] | < 100 | 
CN1CCc2ccccc2C12CCN(CC(=O)N1CC[C@H](F)C1)CC2 [Example 94, (S)-1-(3-fluoropyrrolidin-1-yl)-2-(2-methyl-3,4-dihydro-2H-spiro[isoquinoline-1,4′-piperidine]-1′-yl)ethanone] |  | ++
CN1CCc2ccccc2C12CCN(CC(=O)N1CC[C@@H](F)C1)CC2 [Example 95, (R)-1-(3-fluoropyrrolidin-1-yl)-2-(2-methyl-3,4-dihydro-2H-spiro[isoquinoline-1,4′-piperidine]-1′-yl)ethanone] |  | ++
CN1CCc2ccccc2C12CCN(CC(O)c1cccnc1)CC2 (stereo not drawn) [Example 96, 2-(2-methyl-3,4-dihydro-2H-spiro[isoquinoline-1,4′-piperidine]-1′-yl)-1-(pyridin-3-yl)etanol] |  | ++
CN1CCc2ccccc2C12CCN(CC(O)c1ccccn1)CC2 (stereo not drawn) [Example 97, 2-(2-methyl-3,4-dihydro-2H-spiro[isoquinoline-1,4′-piperidine]-1′-yl)-1-(pyridin-2-yl)ethanol] |  | ++
CN1CCc2ccccc2C12CCN(CC(O)c1ccncc1)CC2 (stereo not drawn) [Example 98, 2-(2-methyl-3,4-dihydro-2H-spiro[isoquinoline-1,4′-piperidine]-1′-yl)-1-(pyridin-4-yl)ethanol] | < 500 | 
CN1CCc2ccccc2C12CCN(C[C@H](O)c1ccncc1)CC2 [Example 99, (R)-2-(2-methyl-3,4-dihydro-2H-spiro[isoquinoline-1,4′-piperidine]-1′-yl)-1-(pyridin-4-yl)ethanol] | < 500 | 
CN1CCc2ccccc2C12CCN(C[C@@H](O)c1ccncc1)CC2 [Example 100, (S)-2-(2-methyl-3,4-dihydro-2H-spiro[isoquinoline-1,4′-piperidine]-1′-yl)-1-(pyridin-4-yl)ethanol] | < 500 | 
CCN(CC1CC1)C(=O)CN1CCC2(CC1)c1ccccc1CCN2C [Example 101, N-(cyclopropylmethyl)-N-ethyl-2-(2-methyl-3,4-dihydro-2H-spiro[isoquinoline-1,4′-piperidine]-1′-yl)acetamide] | < 500 | 
CC(C)N(C(=O)CN1CCC2(CC1)c1ccccc1CCN2C)C(C)C [Example 102, N,N-diisopropyl-2-(2-methyl-3,4-dihydro-2H-spiro[isoquinoline-1,4′-piperidine]-1′-yl)acetamide] |  | ++
CC(C)N(C)C(=O)CN1CCC2(CC1)c1ccccc1CCN2C [Example 103, N-isopropyl-N-methyl-2-(2-methyl-3,4-dihydro-2H-spiro[isoquinoline-1,4′-piperidine]-1′-yl)acetamide] | < 500 | 
CCN(CC(C)C)C(=O)CN1CCC2(CC1)c1ccccc1CCN2C [Example 104, N-ethyl-N-isobutyl-2-(2-methyl-3,4-dihydro-2H-spiro[isoquinoline-1,4′-piperidine]-1′-yl)acetamide] |  | ++
CCCN(CC)C(=O)CN1CCC2(CC1)c1ccccc1CCN2C [Example 105, N-ethyl-2-(2-methyl-3,4-dihydro-2H-spiro[isoquinoline-1,4′-piperidine]-1′-yl)-N-propylacetamide] |  | ++
CCN(C(=O)CN1CCC2(CC1)c1ccccc1CCN2C)C1CC1 [Example 106, N-cyclopropyl-N-ethyl-2-(2-methyl-3,4-dihydro-2H-spiro[isoquinoline-1,4′-piperidine]-1′-yl)acetamide] | < 500 | 
CCCN(C(=O)CN1CCC2(CC1)c1ccccc1CCN2C)C(C)C [Example 107, N-isopropyl-2-(2-methyl-3,4-dihydro-2H-spiro[isoquinoline-1,4′-piperidine]-1′-yl)-N-propylacetamide] |  | ++

Same assay, conditions: combined class for Ki-μ ([3H]-DAMGO, CHO-K1 membranes) and Ki-σ1 ([3H](+)-pentazocine, HEK-293 membranes)

SMILES | Ki [nM]
CN1CCc2ccccc2C12CCN(CCN1CCOCC1=O)CC2 [Example 80, 4-(2-(2-methyl-3,4-dihydro-2H-spiro[isoquinoline-1,4′-piperidine]-1′-yl)ethyl)morpholin-3-one] | ≥ 500
CN1CCc2ccccc2C12CCN(CCc1cccc([N+](=O)[O-])c1)CC2 [Example 85, 2-methyl-1′-(3-nitrophenethyl)-3,4-dihydro-2H-spiro[isoquinoline-1,4′-piperidine]] | ≥ 500
